Legend:
PDE10A = molecular target: T1, PDE10A (Homo sapiens, UniProt Q9Y233); test: Inhibition of recombinant PDE10A (baculovirus/SF21 system), [3H]-cAMP SPA; assay type: biochemical; conditions: recombinant PDE10A1, cytosolic; 0.1 μM [3H]-cAMP, 37° C., 30 minutes; read-out: PDE10A IC50
T1 construct: made in house; host or cells: SF21 insect cells (baculovirus)
Protocol: Inhibition of Recombinant PDE10A (Baculovirus/SF21 System)
The gene was than inserted into a baculovirus vector, ligated with the baculovirus DNA. The enzyme-protein was expressed in SF21-cells. The enzyme was isolated from these cells by harvesting the cells by an centrifugation at 500 g to collect the cells.
The cells were resuspended in 50 mM Tris-HCl/1 mM EDTA/250 mM Sucrose buffer, pH=7.4 (Sigma, Deisenhofen, Germany; Merck, Darmstadt, Germany) and lysed by sonification of the cells (three times for 15 seconds, Labsonic U, Fa. Braun, Degersheim, Switzerland, level “high”). The cytosolic PDE10A was obtained by a centrifugation at 48,000 g for 1 h in the supernatant and stored at −70° C.
PDE activity was determined in a one step procedure in microtiter plates. The reaction mixture of 100 μl contained 50 mM Tris-HCl/5 mM MgCl2 buffer (pH=7.4, Sigma, Deisenhofen, Germany; Merck, Darmstadt, Germany) 0.1 μM [3H]-cAMP (Amersham, Buckinghamshire, UK) and the enzyme. Non-specific enzyme activity was determined without the enzyme. The reaction was initiated by addition of the substrate solution and was carried out at 37° C. for 30 minutes. Enzymatic activity then was stopped by addition of 25 μl Ysi-SPA-beads (Amersham-Pharmacia). One hour later the mixture was measured in a liquid scintillation counter for microtiter plates (Microbeta Trilux). The Biomek 2000 (Beckman) was used routinely for pipetting of the incubation mixture. […] For determination of IC50 values the Hill-plot, 2-parameter-model, was used.

PDE2A = molecular target: T2, PDE2A (Homo sapiens, UniProt O00408); test: Inhibition of recombinant PDE2A (expressed in baculovirus/SF21-cells), [3H]-cAMP SPA; assay type: biochemical
T2 construct: made in house; host or cells: SF21 insect cells (baculovirus)
Protocol: Inhibition of Recombinant PDE2A (Expressed in Baculovirus/SF21-Cells)
PDE2A (NM002599) was cloned and the gene was inserted in the baculovirus and the enzyme-protein expressed in SF21-cells. The enzyme was isolated from these cells by harvesting the cells by an centrifugation at 200 g to collect the cells. The cells were resuspended in 50 mM Tris-HCl/5 mM MgCl2 buffer (pH=7.4) (Sigma, Deisenhofen, Germany; Merck, Darmstadt, Germany) and lysed by a sonication of the cells (three times for 15 seconds, Labsonic U, Fa. Braun, Degersheim, Switzerland, level “high”). The membrane fraction of PDE2A was obtained by a centrifugation at 48 000 g for 1 h, resuspended in buffer and stored at −70° C.
PDE2A activity was determined in a one step procedure in microtiterplates. The reaction mixture of 100 μl contained 50 mM Tris-HCl/5 mM MgCl2 buffer (pH=7.4) (Sigma, Deisenhofen, Germany; Merck, Darmstadt, Germany), 0.5 μM [3H]-cAMP (Amersham, Buckinghamshire, UK), 1000 nM cGMP and the enzyme. Non-specific enzyme activity was tested in the absence of cGMP. The reaction was initiated by addition of the substrate solution and was carried out at 37° C. for 30 minutes. Enzymatic activity then was stopped by addition of 25 μl SPA-beads (Amersham-Pharmacia). One hour later the mixture was measured in a liquid scintillation counter for microtiterplates (Microbeta Trilux). For pipetting of the incubation mixture the robot Biomek (Fa. Beckman) was routinely used.
For determination of IC50 values the Hill-plot, 2-parameter-model, was used.

T1 sequence (Q9Y233 1-779 isoform Q9Y233-1): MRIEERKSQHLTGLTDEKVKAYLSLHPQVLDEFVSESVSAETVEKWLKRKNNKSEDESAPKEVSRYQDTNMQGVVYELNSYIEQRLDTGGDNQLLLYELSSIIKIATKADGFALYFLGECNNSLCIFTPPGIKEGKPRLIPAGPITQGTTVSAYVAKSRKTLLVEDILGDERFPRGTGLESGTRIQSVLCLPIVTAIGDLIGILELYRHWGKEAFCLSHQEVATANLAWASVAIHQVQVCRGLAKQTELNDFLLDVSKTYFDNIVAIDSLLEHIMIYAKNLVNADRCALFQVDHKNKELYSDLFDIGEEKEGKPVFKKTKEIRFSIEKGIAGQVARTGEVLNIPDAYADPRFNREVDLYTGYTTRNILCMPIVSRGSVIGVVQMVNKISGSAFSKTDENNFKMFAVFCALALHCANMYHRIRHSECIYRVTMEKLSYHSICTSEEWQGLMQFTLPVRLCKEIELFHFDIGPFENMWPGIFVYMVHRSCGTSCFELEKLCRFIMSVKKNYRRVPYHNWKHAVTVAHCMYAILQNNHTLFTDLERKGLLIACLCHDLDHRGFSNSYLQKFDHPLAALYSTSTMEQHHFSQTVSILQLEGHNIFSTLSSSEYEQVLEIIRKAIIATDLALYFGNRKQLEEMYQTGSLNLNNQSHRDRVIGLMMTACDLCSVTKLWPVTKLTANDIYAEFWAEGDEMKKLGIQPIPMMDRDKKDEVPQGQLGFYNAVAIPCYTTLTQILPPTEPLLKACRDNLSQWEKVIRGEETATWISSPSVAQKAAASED
T2 sequence (O00408 whole entry): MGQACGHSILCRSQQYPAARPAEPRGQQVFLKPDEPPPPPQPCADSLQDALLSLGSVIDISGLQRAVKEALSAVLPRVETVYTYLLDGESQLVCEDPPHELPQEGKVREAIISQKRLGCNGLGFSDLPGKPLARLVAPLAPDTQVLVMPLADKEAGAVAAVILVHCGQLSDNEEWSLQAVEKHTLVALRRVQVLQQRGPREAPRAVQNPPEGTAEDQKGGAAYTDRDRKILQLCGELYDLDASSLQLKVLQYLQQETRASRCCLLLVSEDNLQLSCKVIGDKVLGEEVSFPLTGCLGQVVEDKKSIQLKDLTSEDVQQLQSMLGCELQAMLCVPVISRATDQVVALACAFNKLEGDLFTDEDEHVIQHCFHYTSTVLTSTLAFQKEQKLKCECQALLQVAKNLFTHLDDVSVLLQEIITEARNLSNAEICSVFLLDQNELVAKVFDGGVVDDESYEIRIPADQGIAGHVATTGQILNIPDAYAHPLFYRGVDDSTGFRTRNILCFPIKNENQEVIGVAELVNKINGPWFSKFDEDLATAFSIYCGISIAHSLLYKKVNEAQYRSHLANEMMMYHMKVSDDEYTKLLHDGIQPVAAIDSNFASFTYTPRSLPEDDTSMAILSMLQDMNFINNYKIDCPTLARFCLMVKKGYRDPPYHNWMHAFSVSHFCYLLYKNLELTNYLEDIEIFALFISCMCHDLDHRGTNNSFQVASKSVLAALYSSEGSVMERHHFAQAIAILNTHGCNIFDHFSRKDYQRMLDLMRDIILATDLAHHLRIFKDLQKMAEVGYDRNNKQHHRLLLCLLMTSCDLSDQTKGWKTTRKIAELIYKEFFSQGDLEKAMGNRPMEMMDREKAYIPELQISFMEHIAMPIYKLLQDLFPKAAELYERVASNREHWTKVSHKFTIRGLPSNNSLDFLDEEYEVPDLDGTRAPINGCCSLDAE

## COc1ccc(Cl)c(-c2nc(C)c3nnc4c(F)cc(OC)cc4n23)c1 [Example 78, 1-(2-chloro-5-methoxyphenyl)-6-fluoro-8-methoxy-3-methylimidazo[5,1-c][1,2,4]benzotriazine]
PDE10A
  IC50: 8.51 nM
PDE2A
  IC50: 3.32 nM

## COc1cc(F)c2nnc3c(C)nc(-c4cc(Cl)ccc4C)n3c2c1 [Example 79, 1-(5-chloro-2-methylphenyl)-6-fluoro-8-methoxy-3-methylimidazo[5,1-c][1,2,4]benzotriazine]
PDE10A
  IC50: 15.2 nM
PDE2A
  IC50: 8.39 nM

## COc1cc(F)c2nnc3c(C)nc(-c4cc(F)ccc4Cl)n3c2c1 [Example 80, 1-(2-chloro-5-fluorophenyl)-6-fluoro-8-methoxy-3-methylimidazo[5,1-c][1,2,4]benzotriazine]
PDE10A
  IC50: 7.09 nM
PDE2A
  IC50: 9.43 nM

## COc1cc(F)c2nnc3c(C)nc(-c4sccc4C)n3c2c1 [Example 81, 6-fluoro-8-methoxy-3-methyl-1-(3-methylthiophen-2-yl)imidazo[5,1-c][1,2,4]benzotriazine]
PDE10A
  IC50: 9.43 nM
PDE2A
  IC50: 35.9 nM

## COc1cc(F)c2nnc3c(C)nc(-c4cc(C(F)(F)F)ccc4Cl)n3c2c1 [Example 82, 1-[2-chloro-5-(trifluoromethyl)phenyl]-6-fluoro-8-methoxy-3-methylimidazo[5,1-c][1,2,4]benzotriazine]
PDE10A
  IC50: 199 nM
PDE2A
  IC50: 60.7 nM

## COc1cc(F)c2nnc3c(C)nc(-c4cc(OC(F)(F)F)ccc4Cl)n3c2c1 [Example 83, 1-[2-chloro-5-(trifluoromethoxy)phenyl]-6-fluoro-8-methoxy-3-methylimidazo[5,1-c][1,2,4]benzotriazine]
PDE10A
  IC50: 65.7 nM
PDE2A
  IC50: 16.5 nM

## COc1cc(F)c2nnc3c(C)nc(-c4cccc(F)c4C)n3c2c1 [Example 84, 6-fluoro-1-(3-fluoro-2-methylphenyl)-8-methoxy-3-methylimidazo[5,1-c][1,2,4]benzotriazine]
PDE10A
  IC50: 10.7 nM
PDE2A
  IC50: 61 nM

## COc1cc(F)c2nnc3c(C)nc(-c4c(C)nn(C)c4C)n3c2c1 [Example 85, 6-fluoro-8-methoxy-3-methyl-1-(1,3,5-trimethyl-1H-pyrazol-4-yl)imidazo[5,1-c][1,2,4]benzotriazine]
PDE10A
  IC50: 55.2 nM
PDE2A
  IC50: 37.3 nM

## COc1cc(F)c2nnc3c(C)nc(-c4ccccc4OC)n3c2c1 [Example 86, 6-fluoro-8-methoxy-1-(2-methoxyphenyl)-3-methylimidazo[5,1-c][1,2,4]benzotriazine]
PDE10A
  IC50: 8.33 nM
PDE2A
  IC50: 3390 nM

## COc1cc(F)c2nnc3c(C)nc(-c4ccncc4)n3c2c1 [Example 87, 6-fluoro-8-methoxy-3-methyl-1-pyridin-4-ylimidazo[5,1-c][1,2,4]benzotriazine]
PDE10A
  IC50: 246 nM
PDE2A
  IC50: 1250 nM

## COc1cc(F)c2nnc3c(C)nc(-c4cc(Cl)ccc4F)n3c2c1 [Example 88, 1-(5-chloro-2-fluorophenyl)-6-fluoro-8-methoxy-3-methylimidazo[5,1-c][1,2,4]benzotriazine]
PDE10A
  IC50: 7.99 nM
PDE2A
  IC50: 14.2 nM

## COc1cc(F)c2nnc3c(C)nc(-c4c(C)noc4C)n3c2c1 [Example 89, 1-(3,5-dimethylisoxazol-4-yl)-6-fluoro-8-methoxy-3-methylimidazo[5,1-c][1,2,4]benzotriazine]
PDE10A
  IC50: 623 nM
PDE2A
  IC50: 819 nM

## COc1cc(F)c2nnc3c(C)nc(-c4cccnc4)n3c2c1 [Example 90, 6-fluoro-8-methoxy-3-methyl-1-pyridin-3-ylimidazo[5,1-c][1,2,4]benzotriazine]
PDE10A
  IC50: 386 nM
PDE2A
  IC50: 585 nM

## COc1cc(F)c2nnc3c(C)nc(-c4sc(C)nc4C)n3c2c1 [Example 91, 1-(2,4-dimethyl-1,3-thiazol-5-yl)-6-fluoro-8-methoxy-3-methylimidazo[5,1-c][1,2,4]benzotriazine]
PDE10A
  IC50: 43.6 nM
PDE2A
  IC50: 56.1 nM

## COc1cc(F)c2nnc3c(C)nc(-c4cnc(F)c(C)c4)n3c2c1 [Example 92, 6-fluoro-1-(6-fluoro-5-methylpyridin-3-yl)-8-methoxy-3-methylimidazo[5,1-c][1,2,4]benzotriazine]
PDE10A
  IC50: 523 nM
PDE2A
  IC50: 469 nM

## COc1cc(F)c2nnc3c(C)nc(-c4ccc(F)nc4C)n3c2c1 [Example 93, 6-fluoro-1-(6-fluoro-2-methylpyridin-3-yl)-8-methoxy-3-methylimidazo[5,1-c][1,2,4]benzotriazine]
PDE10A
  IC50: 252 nM
PDE2A
  IC50: 312 nM

## COc1cc(F)c2nnc3c(C)nc(-c4cccnc4F)n3c2c1 [Example 94, 6-fluoro-1-(2-fluoropyridin-3-yl)-8-methoxy-3-methylimidazo[5,1-c][1,2,4]benzotriazine]
PDE10A
  IC50: 122 nM
PDE2A
  IC50: 127 nM

## COc1cncc(-c2nc(C)c3nnc4c(F)cc(OC)cc4n23)c1 [Example 95, 6-fluoro-8-methoxy-1-(5-methoxypyridin-3-yl)-3-methylimidazo[5,1-c][1,2,4]benzotriazine]
PDE10A
  IC50: 45.5 nM
PDE2A
  IC50: 39.4 nM

## COc1cc(F)c2nnc3c(C)nc(-c4c(C)n[nH]c4C)n3c2c1 [Example 96, 1-(3,5-dimethyl-1H-pyrazol-4-yl)-6-fluoro-8-methoxy-3-methylimidazo[5,1-c][1,2,4]benzotriazine]
PDE10A
  IC50: 53.1 nM
PDE2A
  IC50: 40.3 nM

## COc1cc(F)c2nnc3c(C)nc(-c4cnccc4C)n3c2c1 [Example 97, 6-fluoro-8-methoxy-3-methyl-1-(4-methylpyridin-3-yl)imidazo[5,1-c][1,2,4]benzotriazine]
PDE10A
  IC50: 146 nM
PDE2A
  IC50: 146 nM

## COc1cc(F)c2nnc3c(C)nc(-c4cc(C(N)=O)ccc4F)n3c2c1 [Example 98, 4-fluoro-3-(6-fluoro-8-methoxy-3-methylimidazo[5,1-c][1,2,4]benzotriazin-1-yl)benzamide]
PDE10A
  IC50: 15.4 nM
PDE2A
  IC50: 45 nM

## COc1cccc(-c2nc(C)c3nnc4c(OC)cc(F)cc4n23)c1 [Example 99, 8-fluoro-6-methoxy-1-(3-methoxyphenyl)-3-methylimidazo[5,1-c][1,2,4]benzotriazine]
PDE10A
  IC50: 9.11 nM
PDE2A
  IC50: 20000 nM

## COc1ccccc1-c1nc(C)c2nnc3c(OC)cc(F)cc3n12 [Example 100, 8-fluoro-6-methoxy-1-(2-methoxyphenyl)-3-methylimidazo[5,1-c][1,2,4]benzotriazine]
PDE10A
  IC50: 6.53 nM
PDE2A
  IC50: 894 nM

## COc1cc(F)cc2c1nnc1c(C)nc(-c3cc(C(F)(F)F)ccc3Cl)n12 [Example 101, 1-[2-chloro-5-(trifluoromethyl)phenyl]-8-fluoro-6-methoxy-3-methylimidazo[5,1-c][1,2,4]benzotriazine]
PDE10A
  IC50: 43 nM
PDE2A
  IC50: 258 nM

## COc1ccc(Cl)cc1-c1nc(C)c2nnc3c(OC)cc(F)cc3n12 [Example 102, 1-(5-chloro-2-methoxyphenyl)-8-fluoro-6-methoxy-3-methylimidazo[5,1-c][1,2,4]benzotriazine]
PDE10A
  IC50: 14.5 nM
PDE2A
  IC50: 704 nM

## COc1cc(F)cc2c1nnc1c(C)nc(-c3cc(F)ccc3C)n12 [Example 103, 8-fluoro-1-(5-fluoro-2-methylphenyl)-6-methoxy-3-methylimidazo[5,1-c][1,2,4]benzotriazine]
PDE10A
  IC50: 4.72 nM
PDE2A
  IC50: 435 nM

## COc1cc(F)cc2c1nnc1c(C)nc(-c3cc(Cl)ccc3C)n12 [Example 104, 1-(5-chloro-2-methylphenyl)-8-fluoro-6-methoxy-3-methylimidazo[5,1-c][1,2,4]benzotriazine]
PDE10A
  IC50: 5.37 nM
PDE2A
  IC50: 171 nM

## COc1cc(F)cc2c1nnc1c(C)nc(-c3cc(Cl)ccc3F)n12 [Example 106, 1-(5-chloro-2-fluorophenyl)-8-fluoro-6-methoxy-3-methylimidazo[5,1-c][1,2,4]benzotriazine]
PDE10A
  IC50: 7.91 nM
PDE2A
  IC50: 336 nM

## COc1cc(F)cc2c1nnc1c(C)nc(-c3cc(C)ccc3Cl)n12 [Example 107, 1-(2-chloro-5-methylphenyl)-8-fluoro-6-methoxy-3-methylimidazo[5,1-c][1,2,4]benzotriazine]
PDE10A
  IC50: 2.98 nM
PDE2A
  IC50: 62.5 nM

Reference: patent publication US20100120763A1, “IMIDAZO[5,1-C][1,2,4]BENZOTRIAZINE DERIVATIVES AS INHIBITORS OF PHOSPHODIESTERASES” (priority 2008, published 2010)
